Results from patent publication US20200102295A1, “NITROCATECHOL DERIVATIVES AS COMT INHIBITORS” (BIAL - PORTELA & CA, S.A., priority 2005, published 2020).
“And” between values parts separate entries of the source, which are not always exact repeats. Equal values may be shown once. One block for each molecule: values may come before it.

What was measured:
[1] = system: Neuro 2A mouse neuroblastoma cells; experiment: Cell toxicity: Neuro 2A cell viability (calcein-AM); assay type: cell-based; conditions: Neuro 2A cells, 30 μM, 24 h exposure
[2] = target: T1, rat liver COMT (Rattus norvegicus, UniProt P22734); experiment: Rat liver COMT activity after oral administration of test compounds; assay type: in vivo; conditions: for Rat Liver COMT activity (% control): 3 mg/kg oral
T1 construct: the organs were immediately removed and homogenised in 5 mM phosphate buffer of pH 7.8; from tissue; host or cells: rat liver homogenate (Wistar rats, dosed orally; ex vivo activity)
T1 sequence (P22734 1-264): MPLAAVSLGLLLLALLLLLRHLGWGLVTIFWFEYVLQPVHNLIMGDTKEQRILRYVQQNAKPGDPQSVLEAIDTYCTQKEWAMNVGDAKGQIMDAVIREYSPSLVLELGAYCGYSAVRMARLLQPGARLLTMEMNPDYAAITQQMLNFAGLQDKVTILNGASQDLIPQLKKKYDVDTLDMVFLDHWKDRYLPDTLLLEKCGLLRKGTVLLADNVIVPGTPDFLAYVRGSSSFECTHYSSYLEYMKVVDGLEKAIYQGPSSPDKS

[3] = system: plasma levels of L-DOPA and 3-O-methyl-L-DOPA (3-OMD); experiment: Levels of L-DOPA and 3-O-methyl-L-DOPA in plasma of rats treated with L-DOPA plus benserazide; assay type: in vivo, rat; conditions: 3 mg/kg oral, 2 h after administration; for L-DOPA % increase (plasma level, % control) / 3-OMD % reduction (plasma level, % control): L-DOPA plus benserazide 1 h before plasma collection; for 3-OMD % reduction (plasma level, % control): given with minus sign; for L-Dopa/3-OMD: plasma ratio
[4] = target: T2, mouse liver COMT (Mus musculus, UniProt O88587); experiment: Mouse liver COMT activity after oral administration of test compounds; assay type: in vivo; conditions: 3 mg/kg oral, 3 h after administration
T2 construct: Aliquots of 0.5 ml of liver homogenates were preincubated; from tissue; host or cells: mouse liver homogenate (NMRI mice, dosed orally; ex vivo activity)
T2 sequence (O88587 1-265): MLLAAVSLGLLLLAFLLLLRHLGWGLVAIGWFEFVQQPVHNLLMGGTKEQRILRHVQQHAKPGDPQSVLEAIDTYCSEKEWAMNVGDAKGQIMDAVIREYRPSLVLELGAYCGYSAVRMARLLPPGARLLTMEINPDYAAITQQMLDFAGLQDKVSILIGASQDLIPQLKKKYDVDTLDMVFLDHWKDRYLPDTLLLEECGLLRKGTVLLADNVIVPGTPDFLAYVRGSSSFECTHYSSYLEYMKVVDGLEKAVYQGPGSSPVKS

SMILES: O=[N+]([O-])c1cc(-c2nc(-c3ccc[n+]([O-])c3C(F)(F)F)no2)cc(O)c1O [Compound 42, 3-Nitro-5-[3-(1-oxy-2-trifluoromethyl-pyridin-3-yl)-[1,2,4]oxadiazol-5-yl]-benzene-1,2-diol]
% of viable cells [1]: 96.4%
Rat Liver COMT activity (% control) ([2]; 1 h after administration): 3.6 % control
Rat Liver COMT activity (% control) ([2]; 3 h after administration): 6.1 % control
Rat Liver COMT activity (% control) ([2]; 6 h after administration): 12.3 % control
Rat Liver COMT activity (% control) ([2]; 9 h after administration): 30.9 % control
L-DOPA % increase (plasma level, % control) [3]: 30.7%
3-OMD % reduction (plasma level, % control) [3]: −43.4%
L-Dopa/3-OMD [3]: 2.3
COMT activity (% of control) [4]: 9.4 % of control

SMILES: O=[N+]([O-])c1cc(-c2nc(Cc3ccc(C(F)(F)F)[n+]([O-])c3)no2)cc(O)c1O [Compound 43, 3-Nitro-5-[3-(1′-oxy-6-trifluoromethyl-pyridine-3-ylmethyl)-[1,2,4]oxadiazol-5-yl]-benzene-1,2-diol]
% of viable cells [1]: 101.5%
Rat Liver COMT activity (% control) ([2]; 1 h after administration): 16.1 % control
Rat Liver COMT activity (% control) ([2]; 3 h after administration): 30.6 % control
Rat Liver COMT activity (% control) ([2]; 6 h after administration): 64.3 % control
Rat Liver COMT activity (% control) ([2]; 9 h after administration): 77.9 % control
L-DOPA % increase (plasma level, % control) [3]: 74.9%
3-OMD % reduction (plasma level, % control) [3]: −48.3%
L-Dopa/3-OMD [3]: 3.4
COMT activity (% of control) [4]: 27.2 % of control

SMILES: Cc1ccc(C(=O)c2cc(O)c(O)c([N+](=O)[O-])c2)cc1 [Tolcapone, 3,4-dihydroxy-4′ -methyl-5-nitrobenzophenone, reference compound]
% of viable cells [1]: 27.2%
Rat Liver COMT activity (% control) ([2]; 1 h after administration): 18.3 % control
Rat Liver COMT activity (% control) ([2]; 3 h after administration): 28.6 % control
Rat Liver COMT activity (% control) ([2]; 6 h after administration): 56.8 % control
Rat Liver COMT activity (% control) ([2]; 9 h after administration): 83.9 % control
inhibition at 3 mg/kg ([2]; rat, po, read-out: COMT inhibition nine hours after administration): ~16%
L-DOPA % increase (plasma level, % control) [3]: 202.4%
3-OMD % reduction (plasma level, % control) [3]: −89.0%
L-Dopa/3-OMD [3]: 27.6
COMT activity (% of control) [4]: 13.9 % of control

SMILES: Cc1c(Cl)c(C)[n+]([O-])c(Cl)c1-c1noc(-c2cc(O)c(O)c([N+](=O)[O-])c2)n1 [Compound 45, 5-[3-(2,5-Dichloro-4,6-dimethyl-1-oxy-pyridin-3-yl)-[1,2,4]oxadiazol-5-yl]-3-nitrobenzene-1,2-diol]
% of viable cells [1]: 86.6%
L-DOPA % increase (plasma level, % control) [3]: 100.8%
3-OMD % reduction (plasma level, % control) [3]: −54.3%
L-Dopa/3-OMD [3]: 4.4
COMT activity (% of control) [4]: 30.4 % of control

SMILES: Cc1c(C)c(C)[n+]([O-])c(Cl)c1-c1noc(-c2cc(O)c(O)c([N+](=O)[O-])c2)n1 [Compound 41, 5-[3-(2-Chloro-4,5,6-trimethyl-1-oxy-pyridin-3-yl)-[1,2,4]oxadiazol-5-yl]-3-nitrobenzene-1,2-diol]
% of viable cells [1]: 95.1%
Rat Liver COMT activity (% control) ([2]; 1 h after administration): 21.2 % control
Rat Liver COMT activity (% control) ([2]; 3 h after administration): 9.3 % control
Rat Liver COMT activity (% control) ([2]; 6 h after administration): 18.8 % control
Rat Liver COMT activity (% control) ([2]; 9 h after administration): 39.7 % control
L-DOPA % increase (plasma level, % control) [3]: 95.2%
3-OMD % reduction (plasma level, % control) [3]: −72.3%
L-Dopa/3-OMD [3]: 7.1
COMT activity (% of control) [4]: 14 % of control

SMILES: Cc1c(-c2noc(-c3cc(O)c(O)c([N+](=O)[O-])c3)n2)ccc(C(F)(F)F)[n+]1[O-] [Compound 29, 5-[3-(2-Methyl-1-oxy-6-trifluoromethyl-pyridin-3-yl)-[1,2,4]oxadiazol-5-yl]-3-nitro-benzene-1,2-diol]
% of viable cells [1]: 62.2%
Rat Liver COMT activity (% control) ([2]; 1 h after administration): 1.2 % control
Rat Liver COMT activity (% control) ([2]; 3 h after administration): 18.5 % control
Rat Liver COMT activity (% control) ([2]; 6 h after administration): 39.7 % control
Rat Liver COMT activity (% control) ([2]; 9 h after administration): 56.4 % control
L-DOPA % increase (plasma level, % control) [3]: 105.1%
3-OMD % reduction (plasma level, % control) [3]: −80.7%
L-Dopa/3-OMD [3]: 10.6
COMT activity (% of control) [4]: 10.9 % of control

SMILES: O=[N+]([O-])c1cc(-c2nc(-c3c[n+]([O-])ccc3C(F)(F)F)no2)cc(O)c1O [Compound 18, 3-Nitro-5-[3-(1-oxy-4-trifluoromethyl-pyridin-3-yl)-[1,2,4]oxadiazol-5-yl]-benzene-1,2-diol]
% of viable cells [1]: 93.4%
Rat Liver COMT activity (% control) ([2]; 1 h after administration): 5.2 % control
Rat Liver COMT activity (% control) ([2]; 3 h after administration): 19.9 % control
Rat Liver COMT activity (% control) ([2]; 6 h after administration): 43.0 % control
Rat Liver COMT activity (% control) ([2]; 9 h after administration): 57.4 % control
L-DOPA % increase (plasma level, % control) [3]: 61.4%
3-OMD % reduction (plasma level, % control) [3]: −63.9%
L-Dopa/3-OMD [3]: 4.5
COMT activity (% of control) [4]: 21.2 % of control

SMILES: O=[N+]([O-])c1cc(-c2nc(-c3cc[n+]([O-])c(N4CCSCC4)c3)no2)cc(O)c1O [Compound 12, 3-Nitro-5-[3-(1-oxy-2-thiomorpholin-4-yl-pyridin-4-yl)-[1,2,4]oxadiazol-5-yl]-benzene-1,2-diol]
% of viable cells [1]: 91.7%
COMT activity (% of control) [4]: 92.9 % of control

SMILES: Cc1cc(C)[n+]([O-])c(Cl)c1-c1noc(-c2cc(O)c(O)c([N+](=O)[O-])c2)n1 [Compound 37, 5-[3-(2-Chloro-4,6-dimethyl-1-oxy-pyridin-3-yl)-[1,2,4]oxadiazol-5-yl]-3-nitro-benzene-1,2-diol]
% of viable cells [1]: 92.3%
COMT activity (% of control) [4]: 42.5 % of control

SMILES: CCN(CC)C(=O)/C(C#N)=C/c1cc(O)c(O)c([N+](=O)[O-])c1 [Entacapone, (E)-2-cyano-N,N-diethyl-3-(3,4-dihydroxy-5-nitrophenyl)acrylamide, reference compound]
L-DOPA % increase (plasma level, % control) [3]: 68.5%
3-OMD % reduction (plasma level, % control) [3]: −55.6%
L-Dopa/3-OMD [3]: 3.8

SMILES: O=[N+]([O-])c1cc(-c2nc(-c3cc[n+]([O-])cc3)no2)cc(O)c1O [Compound 4, 3-Nitro-5-[3-(1-oxy-pyridin-4-yl)-[1,2,4]oxadiazol-5-yl]-benzene-1,2-diol]
% of viable cells [1]: 98.3%
COMT activity (% of control) [4]: 42.1 % of control

COMT activity (% of control) ([4]; 3 mg/kg): 64 % of control and 63.6 % of control
SMILES: Cc1nnc(-c2cc(O)c(O)c([N+](=O)[O-])c2)o1 [Compound 3, 5-(5-Methyl-[1,3,4]oxadiazol-2-yl)-3-nitro-benzene-1,2-diol]
% of viable cells [1]: 100.5%

SMILES: Cc1cc(C(F)(F)F)c(-c2noc(-c3cc(O)c(O)c([N+](=O)[O-])c3)n2)c[n+]1[O-] [Compound 30, 5-[3-(6-Methyl-1-oxy-4-trifluoromethyl-pyridin-3-yl)-[1,2,4]oxadiazol-5-yl]-3-nitro-benzene-1,2-diol]
% of viable cells [1]: 81.8%
Rat Liver COMT activity (% control) ([2]; 1 h after administration): 6.3 % control
Rat Liver COMT activity (% control) ([2]; 3 h after administration): 34.8 % control
Rat Liver COMT activity (% control) ([2]; 6 h after administration): 41.2 % control
Rat Liver COMT activity (% control) ([2]; 9 h after administration): 54.5 % control
L-DOPA % increase (plasma level, % control) [3]: 103.5%
3-OMD % reduction (plasma level, % control) [3]: −75.0%
L-Dopa/3-OMD [3]: 8.1
COMT activity (% of control) [4]: 8.8 % of control

SMILES: O=[N+]([O-])c1cc(-c2nc(-c3cc[n+]([O-])c(Oc4ccccc4)c3)no2)cc(O)c1O [Compound 14, 3-Nitro-5-[3-(1-oxy-2-phenoxy-pyridin-4-yl)-[1,2,4]oxadiazol-5-yl]-benzene-1,2-diol]
% of viable cells [1]: 83.5%
COMT activity (% of control) [4]: 76.8 % of control

SMILES: O=[N+]([O-])c1cc(-c2nc(-c3cc(Br)c[n+]([O-])c3)no2)cc(O)c1O [Compound 19, 5-[3-(5-Bromo-1-oxy-pyridin-3-yl)-[1,2,4]oxadiazol-5-yl]-3-nitro-benzene-1,2-diol]
% of viable cells [1]: 100.1%
COMT activity (% of control) [4]: 45.2 % of control

SMILES: Cc1c(-c2noc(-c3cc(O)c(O)c([N+](=O)[O-])c3)n2)c(C(F)(F)F)cc(-c2ccccc2)[n+]1[O-] [Compound 32, 5-[3-(2-Methyl-1-oxy-6-phenyl-4-trifluoromethyl-pyridin-3-yl)-[1,2,4]oxadiazol-5-yl]-3-nitro-benzene-1,2-diol]
% of viable cells [1]: 26.6%
COMT activity (% of control) [4]: 9.7 % of control

SMILES: O=[N+]([O-])c1cc(-c2nc(-c3cc[n+]([O-])c(N4CCOCC4)c3)no2)cc(O)c1O [Compound 11, 5-[3-(2-Morpholin-4-yl-1-oxy-pyridine-4-yl)-[1,2,4]oxadiazol-5-yl]-3-nitro-benzene-1,2-diol]
% of viable cells [1]: 105.7%
COMT activity (% of control) [4]: 63.9 % of control

SMILES: Cc1ccc(-c2noc(-c3cc(O)c(O)c([N+](=O)[O-])c3)n2)c(Br)[n+]1[O-] [Compound 36, 5-[3-(2-Bromo-6-methyl-1-oxy-pyridin-3-yl)-[1,2,4]oxadiazol-5-yl]-3-nitro-benzene-1,2-diol]
% of viable cells [1]: 76.3%
COMT activity (% of control) [4]: 22.9 % of control
